Patent US20030021795A1, “Use of coiled-coil structural scaffold to generate structure-specific peptides” (priority 2000, published 2003)
Where two headings read alike, the source gives them in different places. Square brackets hold non-standard residues; d marks the D form. Ends that are not written are not given here. Nle = CCCC[C@H](N)C(=O)O

How the values were obtained:
[1] = test system: Streptococcus pneumoniae serotype 1; assay type: cell-based; details: antiserum Day 49; immunogen dose 20 μg
[2] = test system: Streptococcus pneumoniae serotypes (1, 3, and 5); assay: Opsonization assay with antiserum; assay type: cell-based
[3] = test system: Coiled-Coil Strep Antigen (Strep-BSA coating antigen); assay type: in vivo, Balb/c mice; details: for Murine Sera (Day 49) OD 405 nm, Strep-BSA coating antigen: immunogen dose 20 μg
[4] = test system: Streptococcus pneumoniae serotype 5; assay type: cell-based; details: antiserum Day 49; immunogen dose 20 μg
[5] = test system: Streptococcus pneumoniae serotype 3; assay type: cell-based; details: antiserum Day 49; immunogen dose 20 μg
[6] = test system: Coiled-Coil Strep Antigen; assay: Isotyping ELISA of mouse serum antibodies after i.p. immunization; assay type: in vivo, Balb/c mice; details: immunogen dose 20 μg
[7] = Thermal denaturation monitored by [θ]222; assay type: physicochemical
Source text: The stability of the peptides may be determined by thermal denaturation assays or chemical denaturation assays such as the guanidine chloride denaturation assay. Such assays are known to those skilled in the art. The stability of the peptides may also be indirectly assessed by inhibition ELISA, wherein the ability of a peptide to inhibit the interaction between an antigen and an antibody serves as an indicator of how stable the peptide is in assuming the necessary conformation to compete with the antigen for the antibody.
In order to determine the stability of CVX0270, a thermal denaturation study was undertaken.

[8] = CD spectroscopy (helical content/conformation of peptides); assay type: physicochemical; details: for conformation by CD in benign buffer: benign buffer (50 mM KH2PO4, 50 mM KCl, pH 7.0), absence of TFE
Protocol: Circular dichroism (CD) spectroscopy was performed using a Jasco J-500C spectropolarimeter (Jasco, Easton, Md.) equipped with a Jasco DP-500N data processor. A 10-fold dilution of an ˜[…] stock solution of the disulfide-linked peptide was loaded into a 0.02 cm fused silica cell and ellipticity scanned from 190 to 250 nm. […] A Lauda water bath (model RMS, Brinkmann Instruments, Rexdale, Ont.) was used to control the temperature of the cell. CD spectra were the average of four scans obtained by collecting data at 0.1 nm intervals from 250 to 190 nm.

anti-Strep serum = assay type: binding, mouse

Substance: TT: unconjugated tetanus toxoid carrier protein
- Percent Reduction of CFU Type 1 [1]: 7%
- reduction in colony forming units by antisera [2]: Little or no reduction in colony forming units
- antibody titers to the Strep hapten ([3]; 20 μg, 10 μg and 5 μg doses): did not elicit any antibodies
- Murine Sera (Day 49) OD 405 nm, Strep-BSA coating antigen ([3]; serum dilution 1:2000): 0.11 OD 405 nm
- Murine Sera (Day 49) OD 405 nm, Strep-BSA coating antigen ([3]; serum dilution 1:4000): 0.04 OD 405 nm
- Murine Sera (Day 49) OD 405 nm, Strep-BSA coating antigen ([3]; serum dilution 1:8000): 0.01 OD 405 nm
- Murine Sera (Day 49) OD 405 nm, Strep-BSA coating antigen ([3]; serum dilution 1:16000): 0.06 OD 405 nm
- Murine Sera (Day 49) OD 405 nm, Strep-BSA coating antigen ([3]; serum dilution 1:32000): 0.00 OD 405 nm
- Murine Sera (Day 49) OD 405 nm, Strep-BSA coating antigen ([3]; serum dilution 1:64000): 0.00 OD 405 nm
- Murine Sera (Day 49) OD 405 nm, Strep-BSA coating antigen ([3]; serum dilution 1:128000): 0.00 OD 405 nm
- Murine Sera (Day 49) OD 405 nm, Strep-BSA coating antigen ([3]; serum dilution 1:256000): 0.00 OD 405 nm
- Percent Reduction of CFU Type 5 [4]: 7%
- Percent Reduction of CFU Type 3 [5]: 6%
- Isotype IgG1 ([6]; sera day 6): 0.06 O.D. 405 nm
- Isotype IgG2a ([6]; sera day 6): 0.02 O.D. 405 nm
- Isotype IgG2b ([6]; sera day 6): 0.01 O.D. 405 nm
- Isotype IgG3 ([6]; sera day 6): 0.01 O.D. 405 nm
- Isotype IgG1 ([6]; sera day 14): 0.05 O.D. 405 nm
- Isotype IgG2a ([6]; sera day 14): 0.00 O.D. 405 nm
- Isotype IgG2b ([6]; sera day 14): 0.00 O.D. 405 nm
- Isotype IgG3 ([6]; sera day 14): 0.01 O.D. 405 nm
- Isotype IgG1 ([6]; sera day 35): 0.08 O.D. 405 nm
- Isotype IgG2a ([6]; sera day 35): 0.01 O.D. 405 nm
- Isotype IgG2b ([6]; sera day 35): 0.01 O.D. 405 nm
- Isotype IgG3 ([6]; sera day 35): 0.01 O.D. 405 nm
- Isotype IgG1 ([6]; sera day 49): 0.44 O.D. 405 nm
- Isotype IgG2a ([6]; sera day 49): 0.03 O.D. 405 nm
- Isotype IgG2b ([6]; sera day 49): 0.02 O.D. 405 nm
- Isotype IgG3 ([6]; sera day 49): 0.05 O.D. 405 nm

Substance: CN1eG IEELEKK ITELKQK IDALENQ IHRLEQE IKELDES (C[Nle]GIEELEKKITELKQKIDALENQIHRLEQEIKELDES) [test peptide]
- stability in thermal denaturation experiment [7]: much more stable than the native control
- conformation by CD in benign buffer [8]: exists in helical form even in benign buffer

Substance: CN1eG LEEAEKK ATEAKQK VDALENQ VHRLEQE LKEIDES (C[Nle]GLEEAEKKATEAKQKVDALENQVHRLEQELKEIDES) [native control]
- conformation by CD in benign buffer [8]: needs the presence of TFE to form a helical structure

Substance: EEESDKKDEEDAEKAE [Strep #2]
- inhibition of anti-Strep serum binding (inhibition ELISA) (anti-Strep serum): no inhibition

Substance: Acetyl-CN1eGEIEALKKKIEELSDKIDELEKEIK-amide [CVX0270]
- stability in thermal denaturation experiment [7]: very stable
- % of original helicity retained ([7]; at 75° C.): 77%
- ratio of the molar ellipticity at 222 and 208 ([θ]222/[θ]208) ([8]; benign conditions): greater than 1.02
- conformation by CD under aqueous conditions ([8]; benign conditions (50 mM KH2PO4, 100 mM KCl, pH 7.0)): highly helical and found predominantly in the coiled-coil conformation
- molar ellipticity at 222 nm ([θ]222) ([8]; benign conditions (50 mM KH2PO4, 100 mM KCl, pH 7.0), 20° C.): −29800
- helical content ([8]; benign conditions (50 mM KH2PO4, 100 mM KCl, pH 7.0), 20° C., versus theoretical [θ]222 −33900): 88%
- helical content ([8]; in the presence of 50% TFE): 101%
- inhibition of anti-Strep serum binding (inhibition ELISA) (anti-Strep serum): significant inhibition

Substance: EIEALKKKIEELSDKIDELEKEIK [Strep #1]
- inhibition of anti-Strep serum binding (inhibition ELISA) (anti-Strep serum): Inhibition was also seen
